From patent US8846615B2, “MNTF peptides” (Genervon Biopharmaceuticals, LLC, priority 2008, dated 2014)
No end group written: not given here.

System: rat spinal motor neurons
Assay: in vitro rat motor neuron cell survival assay
Type: cell-based
Details: for MN survival (% Ctrl): 10 μg/mL peptide, medium lacking NTFs, surviving motor neurons as percentage of those surviving with NTFs alone (control), mean ± SD of five samples; for trophic effect on motor neuron cell death (in words): 10 μg/ml, culture medium lacking the conventional NTFs
Protocol: FIG. 1. Illustrates a survival assay of exemplary MNTF peptides on motor neuron survival. Motor neurons were cultured from rat spinal cords and grown in culture for 3 days in the presence of BDNF, GDNF and CNTF. After 3 days, the cells were grown in the absence of the conventional trophic factors but with the indicated MNTF peptides at 10 microgram/ml. After 48 hours the number of live cells was determined. The graph indicates mean+/−SD of five samples (BDNF=Brain derived neurotrophic factor; GDNF=Glial derived neurotrophic factor; CNTF=Ciliary neurotrophic factor).
Purification and culture of motor neurons. Spinal motor neuron cultures were prepared from E14.5 Sprague-Dawley rats (Charles River Labs). Briefly, dissected spinal cords were digested in 0.025% trypsin (Gibco) for 8 min at 37° C. The tissue was transferred to a solution containing L-15 medium (Gibco) supplemented with 2% horse serum (Gibco), insulin (5 μg/ml); putrescine (1×10^-4 M), conalbumin (100 μg/ml), sodium selenite (3×10^-8 M), progesterone (2×10^-8 M), glucose (3.6 mg/ml), penicillin (100 IU/ml), streptomycin (100 μg/ml), DNAse (100 μg/ml) and bovine serum albumin (BSA; 0.4%). […] The layered suspension was centrifuged at 830×g for 15 min. […] The motor neurons medium consists of neurobasal medium (Gibco) supplemented with B27 supplement (Gibco), glutamate (25 μM), 2-mercaptoethanol (25 μM) and 2% horse serum. The motor neurons were plated onto laminin-coated coverslips at a density of 3000 cells/coverslip unless otherwise stated. A cocktail of neurotrophic factors (NTFs: 1 ng/ml BDNF, 100 pg/ml GDNF, 10 ng/ml CNTF) was added at the time of cell seeding. After 24 h in culture, motor neurons were treated by addition of the different analogs diluted in motor neurons medium lacking NTFs.
Survival assay. Spinal motor neurons were prepared from E14.5 rat embryos as described. Cells were cultured in the presence of NTFs for 24 h and viability (VI) was estimated by counting the number of calcein AM-positive cells. For viability studies, motor neurons were cultured in the absence of NTFs with the addition of the analogs or GM6. The percentage of viable motor neurons was calculated by counting the number of neurons.
Statistical analysis. The number of surviving motor neurons for each treatment was expressed as a percentage of the number of motor neurons surviving in the presence of NTFs alone (control). Five dishes were used for each condition. Differences between treatments were analyzed for their statistical significance by one-way ANOVA with post hoc Tukey's testing.

| Substance | MN survival (% Ctrl) | trophic effect on motor neuron cell death (in words) | trophic effect on motor neuron cell death (in words) (listed as GM6) |
| --- | --- | --- | --- |
| SRY [compound 3221, 3-mer MNTF peptide] | 9.08 ± 2.32 |  |  |
| SRYA [compound 3223, 4-mer MNTF peptide] | 15.46 ± 1.82 |  |  |
| FSRYA [compound 2309, 5-mer MNTF peptide, metabolite of the 6mer] | 81.5 ± 4.50 |  |  |
| RYA [compound 3222, 3-mer MNTF peptide] | 10.64 ± 1.72 |  |  |
| FSRYAR [GM6(GMP014), synthesized 6 amino acid peptide analog of MNTF] | 94.02 ± 3.53 | demonstrated protection from neuronal cell loss | demonstrated an attenuation of motor neuron cell death |
| FSRY [compound 2308, 4-mer MNTF peptide, metabolite of the 6mer] | 66.38 ± 5.86 |  |  |
| YAR [compound 2310, 3-mer MNTF peptide, metabolite of the 6mer] | 12.26 ± 1.70 |  |  |
| FSR [compound 2307, 3-mer MNTF peptide, metabolite of the 6mer] | 35.00 ± 5.28 |  |  |
| SRYAR [compound 2312, 5-mer MNTF peptide, metabolite of the 6mer] | 12.02 ± 2.31 |  |  |
| RYAR [compound 2311, 4-mer MNTF peptide, metabolite of the 6mer] | 9.66 ± 2.50 |  |  |
